Test [1] has as its target T1, Tyrosinase (Agaricus bisporus) (UniProt O42713).
T1 sequence (whole entry): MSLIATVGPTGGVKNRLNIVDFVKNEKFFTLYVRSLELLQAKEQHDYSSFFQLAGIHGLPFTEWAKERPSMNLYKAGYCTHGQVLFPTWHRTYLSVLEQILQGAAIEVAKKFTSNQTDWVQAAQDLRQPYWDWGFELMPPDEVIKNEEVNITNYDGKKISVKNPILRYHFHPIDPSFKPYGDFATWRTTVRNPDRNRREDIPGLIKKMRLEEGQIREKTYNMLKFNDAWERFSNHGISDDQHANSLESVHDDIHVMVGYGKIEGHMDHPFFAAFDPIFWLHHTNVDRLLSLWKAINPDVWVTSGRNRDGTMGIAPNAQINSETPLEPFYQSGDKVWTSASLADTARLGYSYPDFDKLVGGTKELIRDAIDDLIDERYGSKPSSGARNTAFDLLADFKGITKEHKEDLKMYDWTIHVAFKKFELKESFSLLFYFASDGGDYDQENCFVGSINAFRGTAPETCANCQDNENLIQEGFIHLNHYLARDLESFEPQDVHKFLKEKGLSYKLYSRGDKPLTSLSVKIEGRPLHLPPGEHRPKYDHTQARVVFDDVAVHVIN
Put plainly: Inhibition of mushroom tyrosinase using L-tyrosine as substrate assessed as dopachrome formation at 100 uM measured for 10 mins by spectrophotometric method relative to control.

Test [2] deals with MCF7. Briefly: Cytotoxicity against human MCF7 cells assessed as inhibition of cell proliferation after 48 hrs by MTT assay. The test is classed as functional, cell-based.
Test [3] can be described thus: Cytotoxicity against human HCT116 cells assessed as inhibition of cell proliferation after 48 hrs by MTT assay. Type of test: functional, cell-based, HCT-116.

pIC50: −log10 of the molar value. The source made the active and inactive calls. The rule behind the calls is not given here.

As for `COc1ccc(P2(=S)NC(=S)C3=C(N2)Oc2c(c(=S)oc4ccccc24)C3c2cccnc2)cc1` (stereo not given), in test [1], the inhibition entry is “inactive”. Also, the pIC50 is under 4.00 in test [2] (Homo sapiens, MCF7, 48 h) and under 4.00 in test [3] (Homo sapiens, HCT-116, 48 h). As to `COc1ccc(P2(=S)NC(=S)C3=C(N2)Oc2c(c(=S)oc4ccccc24)C3c2ccccn2)cc1` (stereo not given), the inhibition in test [1] was determined as 97.4%. The pIC50 in test [2] (Homo sapiens, MCF7, 48 h) is under 4.00; in test [3] (Homo sapiens, HCT-116, 48 h) it was under 4.00. Consider `COc1ccc(C2C3=C(NP(=S)(c4ccc(OC)cc4)NC3=S)Oc3c2c(=S)oc2ccccc32)cc1` (single isomer, unassigned; diastereomer 1) [listing 1 of 2 here], for which the pIC50 was under 4.00 in test [2] (Homo sapiens, MCF7, 48 h) and 4.31 in test [3] (Homo sapiens, HCT-116, 48 h). The matching figures for `COc1ccc(P2(=S)NC(=S)C3=C(N2)Oc2c(c(=S)oc4ccccc24)C3c2ccc(OC)c(OC)c2)cc1` (single isomer, unassigned; diastereomer 1) [listing 1 of 2 here]: under 4.00 and under 4.00.

For `COc1ccc(P2(=S)NC(=S)C3=C(N2)Oc2c(c(=S)oc4ccccc24)C3c2ccc(Cl)cc2)cc1` (single isomer, unassigned; diastereomer 1) [listing 1 of 2 here], the pIC50 in test [2] (Homo sapiens, MCF7, 48 h) was 4.49; in test [3] (Homo sapiens, HCT-116, 48 h), 4.49. As for `CCCCOc1ccc(C2C3=C(NP(=S)(c4ccc(OC)cc4)NC3=S)Oc3c2c(=S)oc2ccccc32)cc1` (single isomer, unassigned; diastereomer 1) [listing 1 of 2 here], the negative-log IC50 (pIC50) was 4.43 in test [2] (mcf7) and 4.60 in test [3] (hct-116). `COc1ccc(P2(=S)NC(=S)C3=C(N2)Oc2c(c(=S)oc4ccccc24)C3c2ccccc2)cc1` (single isomer, unassigned; diastereomer 1) [listing 1 of 2 here]: the negative-log IC50 (pIC50) in test [2] (Homo sapiens, MCF7, 48 h) is under 4.00; in test [3] (Homo sapiens, HCT-116, 48 h) it was 4.15. For the compound `COc1ccc(P2(=S)NC(=S)C3=C(N2)Oc2c(c(=S)oc4ccccc24)C3c2ccc(C)cc2)cc1` (single isomer, unassigned; diastereomer 1) [listing 1 of 2 here], the pIC50 in test [2] (mcf7) was under 4.00; in test [3] (Homo sapiens, HCT-116, 48 h) it was 4.32. As for `CCCCOc1ccc(C2C3=C(NP(=S)(c4ccc(OC)cc4)NC3=S)Oc3c2c(=S)oc2ccccc32)cc1` (single isomer, unassigned; diastereomer 1) [listing 2 of 2 here], the inhibition in test [1] came out at 55%. Take `COc1ccc(C2C3=C(NP(=S)(c4ccc(OC)cc4)NC3=S)Oc3c2c(=S)oc2ccccc32)cc1` (single isomer, unassigned; diastereomer 1) [listing 2 of 2 here]: the inhibition entry in test [1] is “inactive”. Same read-out and setting: under `COc1ccc(P2(=S)NC(=S)C3=C(N2)Oc2c(c(=S)oc4ccccc24)C3c2ccc(C)cc2)cc1` (single isomer, unassigned; diastereomer 1) [listing 2 of 2 here] stands 58.5%; under `COc1ccc(P2(=S)NC(=S)C3=C(N2)Oc2c(c(=S)oc4ccccc24)C3c2ccc(Cl)cc2)cc1` (single isomer, unassigned; diastereomer 1) [listing 2 of 2 here], 80.7%. Same read-out and setting: next, `COc1ccc(P2(=S)NC(=S)C3=C(N2)Oc2c(c(=S)oc4ccccc24)C3c2ccc(OC)c(OC)c2)cc1` (single isomer, unassigned; diastereomer 1) [listing 2 of 2 here]: “inactive”; `COc1ccc(P2(=S)NC(=S)C3=C(N2)Oc2c(c(=S)oc4ccccc24)C3c2ccccc2)cc1` (single isomer, unassigned; diastereomer 1) [listing 2 of 2 here]: “inactive”. As for `COc1ccc(C2C3=C(NP(=S)(c4ccc(OC)cc4)NC3=S)Oc3c2c(=S)oc2ccccc32)cc1` (single isomer, unassigned; diastereomer 2) [listing 1 of 2 here], the pIC50 in test [2] (mcf7) was 4.00; in test [3] (hct-116), 4.50.

Consider `COc1ccc(P2(=S)NC(=S)C3=C(N2)Oc2c(c(=S)oc4ccccc24)C3c2ccc(Cl)cc2)cc1` (single isomer, unassigned; diastereomer 2) [listing 1 of 2 here], for which the negative logarithm of the IC50 (pIC50) in test [2] (mcf7) is 4.48; in test [3] (hct-116), 4.52.

As to `CCCCOc1ccc(C2C3=C(NP(=S)(c4ccc(OC)cc4)NC3=S)Oc3c2c(=S)oc2ccccc32)cc1` (single isomer, unassigned; diastereomer 2) [listing 1 of 2 here], the negative-log IC50 (pIC50) in test [2] (mcf7) is under 4.00; in test [3] (hct-116) it was 4.25.

In the case of `COc1ccc(P2(=S)NC(=S)C3=C(N2)Oc2c(c(=S)oc4ccccc24)C3c2ccccc2)cc1` (single isomer, unassigned; diastereomer 2) [listing 1 of 2 here], the pIC50 in test [3] (hct-116) was 4.17.

With `COc1ccc(P2(=S)NC(=S)C3=C(N2)Oc2c(c(=S)oc4ccccc24)C3c2ccc(C)cc2)cc1` (single isomer, unassigned; diastereomer 2) [listing 1 of 2 here], the pIC50 is 4.40 in test [2] (mcf7) and 4.43 in test [3] (hct-116).

For the compound `CCCCOc1ccc(C2C3=C(NP(=S)(c4ccc(OC)cc4)NC3=S)Oc3c2c(=S)oc2ccccc32)cc1` (single isomer, unassigned; diastereomer 2) [listing 2 of 2 here], the inhibition in test [1] is 88.7%. On the same count and under the same terms, under `COc1ccc(C2C3=C(NP(=S)(c4ccc(OC)cc4)NC3=S)Oc3c2c(=S)oc2ccccc32)cc1` (single isomer, unassigned; diastereomer 2) [listing 2 of 2 here] stands 68.8%.

On to `COc1ccc(P2(=S)NC(=S)C3=C(N2)Oc2c(c(=S)oc4ccccc24)C3c2ccc(C)cc2)cc1` (single isomer, unassigned; diastereomer 2) [listing 2 of 2 here], for which the inhibition in test [1] is 61.8%. For the compound `COc1ccc(P2(=S)NC(=S)C3=C(N2)Oc2c(c(=S)oc4ccccc24)C3c2ccc(Cl)cc2)cc1` (single isomer, unassigned; diastereomer 2) [listing 2 of 2 here], the inhibition in test [1] was 16.1%. On the same count and under the same terms, next, `COc1ccc(P2(=S)NC(=S)C3=C(N2)Oc2c(c(=S)oc4ccccc24)C3c2ccc(OC)c(OC)c2)cc1` (single isomer, unassigned; diastereomer 2): 56.8%; `COc1ccc(P2(=S)NC(=S)C3=C(N2)Oc2c(c(=S)oc4ccccc24)C3c2ccccc2)cc1` (single isomer, unassigned; diastereomer 2) [listing 2 of 2 here]: “inactive”. Regarding `COc1cccc2c1C(=O)c1c(O)c3c(c(O)c1C2=O)C[C@@](O)(C(=O)CO)C[C@@H]3O[C@H]1C[C@H](N)[C@H](O)[C@H](C)O1` [DOXORUBICIN], the pIC50 in test [2] (Homo sapiens, MCF7, 48 h) is 6.42.
